Numbers after ± are expanded uncertainties.
Conditions: Liquid, Closed cell (Static) method

SMILES | vapor or sublimation pressure (268.13 K) | vapor or sublimation pressure (278.13 K) | vapor or sublimation pressure (288.15 K) | vapor or sublimation pressure (298.17 K) | vapor or sublimation pressure (308.2 K) | vapor or sublimation pressure (318.21 K) | vapor or sublimation pressure (278.14 K) | vapor or sublimation pressure (288.14 K) | vapor or sublimation pressure (298.14 K) | vapor or sublimation pressure (308.19 K) | vapor or sublimation pressure (318.22 K)
FC(F)(F)C1(F)OC1(F)F (configuration not stated) [2,2,3-trifluoro-3-(trifluoromethyl)oxirane] | 258.47 ± 1.6 kPa | 365.66 ± 1.8 kPa | 503.71 ± 2.1 kPa | 678.24 ± 2.5 kPa | 894.42 ± 3 kPa | 1160.2 ± 3.4 kPa | – | – | – | – | –
FC(F)=C(F)C(F)(F)F [hexafluoropropene] | 278.57 ± 1.7 kPa | – | – | – | – | – | 394.08 ± 1.9 kPa | 542.58 ± 2.2 kPa | 729.82 ± 2.6 kPa | 963.24 ± 3.2 kPa | 1251.2 ± 3.6 kPa
